Results: ChEMBL document CHEMBL1201862, “PubChem BioAssay data set” (2004)
The source made the active and inactive calls.

What was measured:
[1] = target: Glucose-6-phosphate 1-dehydrogenase (Homo sapiens, UniProt P11413); test: inhibition of Homo sapiens G6PD, dose series – biochemical, fluorescence, selectivity assay for P. falciparum G6PD inhibitor project, dose response (AID 504792); format: functional
[2] = target: FAD-linked sulfhydryl oxidase ALR (Homo sapiens, UniProt P55789); test: ALR-catalysed DTT oxidation blockers – biochemical, H2O2 detection, luminescence, cherry-pick, dose response (AID 493248)
[3] = cells; format: functional
[4] = Vero E6 cell cytotoxicity, dose response, cytotoxicity control for non-replicating M. tuberculosis project, secondary assay (AID 492998); format: functional, VeroE6; settings: Vero C1008
[5] = Counterscreen for AddAB inhibitors: absorbance-based bacterial cell-based high throughput dose response assay for inhibitors of bacterial viability. [Related pubchem assays (depositor defined):AID435030, AID449728, AID449731, AID488942, AID488955, AID488956]; format: functional
[6] = THP-1 cell cytotoxicity, dose response, cytotoxicity control for non-replicating M. tuberculosis project (AID 489025); format: functional
[7] = target: T1, Exodeoxyribonuclease V (Escherichia coli (strain K12), UniProt P04993+P07648+P08394); test: RecBCD inhibition via phage-restricted bacterial growth – absorbance, V66 E. coli, mutant T4 phage, counter-screen for AddAB inhibitor project, dose response (AID 492957); format: functional, cell-based, Escherichia coli str. K-12 substr. MG1655
T1 sequence (P04993 whole entry): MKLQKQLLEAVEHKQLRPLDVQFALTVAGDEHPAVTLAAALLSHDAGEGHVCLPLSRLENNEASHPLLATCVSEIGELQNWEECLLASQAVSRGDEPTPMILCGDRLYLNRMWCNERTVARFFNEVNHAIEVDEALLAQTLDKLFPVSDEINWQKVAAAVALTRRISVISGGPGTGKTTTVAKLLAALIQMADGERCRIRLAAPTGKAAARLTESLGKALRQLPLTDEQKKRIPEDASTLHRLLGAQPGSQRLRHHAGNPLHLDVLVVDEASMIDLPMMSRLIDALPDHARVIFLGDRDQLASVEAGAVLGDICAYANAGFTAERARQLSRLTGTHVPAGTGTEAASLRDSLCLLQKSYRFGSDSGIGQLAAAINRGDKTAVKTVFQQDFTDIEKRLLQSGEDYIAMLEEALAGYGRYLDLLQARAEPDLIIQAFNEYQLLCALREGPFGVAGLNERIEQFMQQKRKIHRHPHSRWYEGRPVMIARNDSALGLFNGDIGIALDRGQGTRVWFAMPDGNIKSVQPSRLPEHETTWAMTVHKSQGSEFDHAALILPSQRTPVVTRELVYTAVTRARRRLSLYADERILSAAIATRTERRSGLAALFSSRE
T1 sequence (P07648 whole entry): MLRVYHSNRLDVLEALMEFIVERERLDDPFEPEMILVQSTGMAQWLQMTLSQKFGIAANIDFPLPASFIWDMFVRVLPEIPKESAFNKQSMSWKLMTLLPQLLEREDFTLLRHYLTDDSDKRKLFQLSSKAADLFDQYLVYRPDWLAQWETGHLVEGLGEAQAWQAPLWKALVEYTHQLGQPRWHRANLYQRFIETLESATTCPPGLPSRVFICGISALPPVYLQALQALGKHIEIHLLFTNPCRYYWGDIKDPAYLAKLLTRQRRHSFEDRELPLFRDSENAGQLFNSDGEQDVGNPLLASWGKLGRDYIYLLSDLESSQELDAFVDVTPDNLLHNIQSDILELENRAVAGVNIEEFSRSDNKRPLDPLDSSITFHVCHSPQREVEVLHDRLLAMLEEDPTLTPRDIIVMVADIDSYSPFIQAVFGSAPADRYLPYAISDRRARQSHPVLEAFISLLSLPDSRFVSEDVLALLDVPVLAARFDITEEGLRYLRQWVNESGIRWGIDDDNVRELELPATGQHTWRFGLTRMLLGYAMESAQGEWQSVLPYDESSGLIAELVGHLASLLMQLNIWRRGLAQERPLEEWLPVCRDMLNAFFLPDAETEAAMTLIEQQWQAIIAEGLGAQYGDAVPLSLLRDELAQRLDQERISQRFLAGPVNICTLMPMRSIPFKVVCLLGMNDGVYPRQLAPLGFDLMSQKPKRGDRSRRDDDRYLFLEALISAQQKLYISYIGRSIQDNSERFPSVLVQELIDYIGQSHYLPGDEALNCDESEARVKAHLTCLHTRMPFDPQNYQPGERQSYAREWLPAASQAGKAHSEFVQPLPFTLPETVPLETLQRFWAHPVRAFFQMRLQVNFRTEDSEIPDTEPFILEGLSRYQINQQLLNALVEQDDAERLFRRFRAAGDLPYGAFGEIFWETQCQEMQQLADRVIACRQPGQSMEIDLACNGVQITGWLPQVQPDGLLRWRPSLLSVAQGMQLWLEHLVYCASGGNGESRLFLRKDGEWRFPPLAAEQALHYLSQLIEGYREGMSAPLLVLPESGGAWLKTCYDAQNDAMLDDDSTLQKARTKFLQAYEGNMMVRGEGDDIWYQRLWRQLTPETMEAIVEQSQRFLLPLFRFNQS
T1 sequence (P08394 whole entry): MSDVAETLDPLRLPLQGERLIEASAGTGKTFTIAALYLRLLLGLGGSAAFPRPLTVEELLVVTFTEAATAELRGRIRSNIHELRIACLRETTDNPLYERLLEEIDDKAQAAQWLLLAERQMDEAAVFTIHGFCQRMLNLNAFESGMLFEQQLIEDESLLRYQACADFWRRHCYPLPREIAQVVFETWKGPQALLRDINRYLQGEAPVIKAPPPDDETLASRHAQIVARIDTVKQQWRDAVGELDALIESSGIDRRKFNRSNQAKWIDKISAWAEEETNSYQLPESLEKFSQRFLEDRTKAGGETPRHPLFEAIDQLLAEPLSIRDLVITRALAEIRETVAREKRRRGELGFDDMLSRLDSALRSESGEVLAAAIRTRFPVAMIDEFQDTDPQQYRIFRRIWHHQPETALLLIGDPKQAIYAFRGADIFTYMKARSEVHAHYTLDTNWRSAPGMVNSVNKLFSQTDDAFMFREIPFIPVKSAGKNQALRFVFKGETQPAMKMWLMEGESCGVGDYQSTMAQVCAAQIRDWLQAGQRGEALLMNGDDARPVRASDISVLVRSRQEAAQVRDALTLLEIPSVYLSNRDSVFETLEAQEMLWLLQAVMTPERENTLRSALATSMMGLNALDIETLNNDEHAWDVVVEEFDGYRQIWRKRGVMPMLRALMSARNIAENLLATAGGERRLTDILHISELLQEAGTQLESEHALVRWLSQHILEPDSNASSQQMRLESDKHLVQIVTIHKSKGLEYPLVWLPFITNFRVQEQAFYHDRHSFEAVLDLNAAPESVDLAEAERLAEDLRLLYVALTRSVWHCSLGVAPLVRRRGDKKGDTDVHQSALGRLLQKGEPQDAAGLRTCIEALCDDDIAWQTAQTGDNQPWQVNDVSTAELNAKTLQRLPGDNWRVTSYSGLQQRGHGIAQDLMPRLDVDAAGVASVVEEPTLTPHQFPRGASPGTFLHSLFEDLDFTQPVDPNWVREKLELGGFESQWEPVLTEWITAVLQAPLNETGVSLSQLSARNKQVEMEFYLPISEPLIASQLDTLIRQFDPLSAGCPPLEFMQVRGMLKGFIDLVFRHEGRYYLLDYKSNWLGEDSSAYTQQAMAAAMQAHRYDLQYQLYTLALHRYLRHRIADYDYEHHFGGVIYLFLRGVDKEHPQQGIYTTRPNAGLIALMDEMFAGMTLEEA

[8] = viability loss of HMLE_sh_eGFP cells – cell-based, luminescence, counter-screen for HMLE_sh_ECad selective toxicity project, dose response (AID 463074); format: functional, Homo sapiens;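 further: HMLE human mammary epithelial cells expressing control shRNA against eGFP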
[9] = Luminescence Cell-Based Dose Retest to Confirm Inhibitors of Cancer Stem Cells. [Related pubchem assays (depositor defined):AID2717, AID2721]; format: functional; settings: Homo sapiens
[10] = NIH3T3 cell viability loss – ATP luminescence, mouse fibroblasts, counter-screen, dose response (AID 2010); format: functional, cell-based;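 further: cells exposed to compound for about 90 hours before reading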
[11] = target: T2, Streptokinase A (Streptococcus pyogenes serotype M1, UniProt P10520); test: viability-normalized secreted streptokinase activity reduction – plasminogen activation absorbance, OD405, dose response (AID 1914); format: functional, Streptococcus pyogenes M1 GAS;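 further: secreted streptokinase activity via plasminogen activation per viability signal from cell pellet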
T2 sequence (P10520 whole entry): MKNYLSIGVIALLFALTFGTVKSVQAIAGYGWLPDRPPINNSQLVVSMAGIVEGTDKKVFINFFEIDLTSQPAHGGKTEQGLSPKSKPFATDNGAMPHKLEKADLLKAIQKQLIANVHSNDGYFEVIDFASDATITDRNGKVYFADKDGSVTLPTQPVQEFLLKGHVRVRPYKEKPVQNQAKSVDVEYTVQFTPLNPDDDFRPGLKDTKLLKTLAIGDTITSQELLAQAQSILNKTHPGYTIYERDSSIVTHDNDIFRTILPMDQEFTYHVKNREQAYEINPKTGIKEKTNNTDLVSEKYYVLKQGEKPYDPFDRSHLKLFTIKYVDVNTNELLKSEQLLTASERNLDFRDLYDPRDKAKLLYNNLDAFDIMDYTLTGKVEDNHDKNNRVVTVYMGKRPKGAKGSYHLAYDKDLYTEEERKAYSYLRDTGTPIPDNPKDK

[12] = target: Heat shock protein HSP 90-alpha (Homo sapiens, UniProt P07900); format: functional, organism-based
[13] = Trypanosoma cruzi growth suppression in host cells – NIH3T3 host cells, beta-gal luminescence, confirmation (AID 2044); format: functional, cell-based;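 further: intracellular parasites grown in NIH/3T3 mouse fibroblasts as host cells; luminescent beta-galactosidase reporter signal from transgenic T. cruzi replicating inside host cells; inhibitors lower the luminescence signal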
[14] = tested on: Streptococcus; test: GAS UMAA2166 growth inhibition – luminescence, BacTiterGlo, counter-screen for streptokinase expression inhibitor project, dose response (AID 1915); format: functional, organism-based;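 further: potency for reduction of bacterial viability or growth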
[15] = tested on: Streptococcus sp. 'group A'; test: Streptococcus pyogenes SK(-)GAS viability under kanamycin – luminescence, BacTiterGlo, confirmation, counter-screen for streptokinase expression inhibitor project, dose response (AID 1900); format: functional, organism-based
[16] = target: T3, Heat shock factor protein 1 (Mus musculus, UniProt P38532); test: decrease of HSF1-responsive luciferase luminescence – cell-based, NIH3T3, dose retest, confirmation (AID 2382); format: functional;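 further: NIH3T3 fibroblasts with HSF1-driven luciferase reporter stressed by proteasome inhibitor MG132; luminescence from HSF1-driven luciferase expression after 8 hours of MG132 stress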
T3 sequence (P38532 whole entry): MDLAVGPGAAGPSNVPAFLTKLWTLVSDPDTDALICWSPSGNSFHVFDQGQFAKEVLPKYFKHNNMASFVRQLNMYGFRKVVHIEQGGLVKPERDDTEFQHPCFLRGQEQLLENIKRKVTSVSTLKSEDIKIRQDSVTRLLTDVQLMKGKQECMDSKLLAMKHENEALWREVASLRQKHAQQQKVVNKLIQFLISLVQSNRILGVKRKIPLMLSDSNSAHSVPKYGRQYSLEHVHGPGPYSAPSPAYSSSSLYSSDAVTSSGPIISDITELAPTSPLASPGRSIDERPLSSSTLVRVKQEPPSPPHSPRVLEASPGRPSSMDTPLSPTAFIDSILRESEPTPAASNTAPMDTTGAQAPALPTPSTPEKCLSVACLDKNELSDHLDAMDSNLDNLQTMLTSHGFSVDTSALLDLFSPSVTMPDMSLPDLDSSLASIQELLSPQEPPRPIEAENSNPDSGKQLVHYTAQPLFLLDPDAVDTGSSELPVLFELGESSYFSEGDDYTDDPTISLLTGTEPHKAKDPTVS

Glucose-6-phosphate 1-dehydrogenase, sequence (P11413 whole entry): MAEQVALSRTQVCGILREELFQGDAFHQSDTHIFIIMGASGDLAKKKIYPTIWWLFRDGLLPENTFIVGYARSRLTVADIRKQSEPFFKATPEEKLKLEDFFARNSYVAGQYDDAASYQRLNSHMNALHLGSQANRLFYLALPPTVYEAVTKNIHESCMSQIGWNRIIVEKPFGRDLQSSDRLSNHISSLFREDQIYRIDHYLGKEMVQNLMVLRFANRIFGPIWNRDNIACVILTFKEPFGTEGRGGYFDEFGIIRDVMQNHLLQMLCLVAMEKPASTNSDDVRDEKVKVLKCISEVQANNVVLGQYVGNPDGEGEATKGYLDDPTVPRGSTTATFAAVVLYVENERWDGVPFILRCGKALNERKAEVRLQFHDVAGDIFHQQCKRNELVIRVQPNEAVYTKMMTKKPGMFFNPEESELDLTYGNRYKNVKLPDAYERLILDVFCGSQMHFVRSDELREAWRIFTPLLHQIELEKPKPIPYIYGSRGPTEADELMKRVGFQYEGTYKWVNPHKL
FAD-linked sulfhydryl oxidase ALR, sequence (P55789 whole entry): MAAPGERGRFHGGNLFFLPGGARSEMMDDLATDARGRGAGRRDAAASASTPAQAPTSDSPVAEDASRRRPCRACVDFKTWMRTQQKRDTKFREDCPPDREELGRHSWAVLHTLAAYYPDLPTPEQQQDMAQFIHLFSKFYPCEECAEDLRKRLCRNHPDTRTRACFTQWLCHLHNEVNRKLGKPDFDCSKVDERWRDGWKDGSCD

Question: Which IC50 [1] does the source give for Oc1ccc(C23CC4CC(CC(C4)C2)C3)cc1O here?
Answer: > 80 µM (inactive)

Question: What about the AC50 [2] of the same compound?
Answer: 4.17 µM (active)

Question: What does the source list for NC(=NOC(=O)c1ccccc1Cl)c1ncc([N+](=O)[O-])s1?
Answer: IC50 [3]: 3.81 µM (active); CC50 [4]: > 20 µM (active); IC50 [5]: > 119 µM (inactive); CC50 [6]: 34.4 µM (active); IC50 [7]: > 119 µM (inactive)

Question: Which results are given for CCN(CC)CCNCc1ccc(-c2ccc(Cl)cc2)o1?
Answer: AC50 [8]: 20.9 µM (active); AC50 [9]: 8.94 µM (active)

Question: With CCCC(=O)NC(c1ccco1)c1cc(Cl)c2cccnc2c1O (configuration not stated) as the compound, how does the EC50 [10] read?
Answer: 5.04 µM (active)

Question: What about the EC50 [11] of the same compound?
Answer: > 150 µM (not active)

Question: And the AC50 [12]?
Answer: 4.25 µM (active)

Question: What about the EC50 [13] of the same compound?
Answer: 3.44 µM (active)

Question: What about the EC50 [14] of the same compound?
Answer: 32 µM (active)

Question: What about the IC50 [5] of the same compound?
Answer: > 119 µM (inactive)

Question: What about the EC50 [15] of the same compound?
Answer: 1.18 µM (active)

Question: What about the IC50 [7] of the same compound?
Answer: > 119 µM (inactive)

Question: Which results are given for CC(C)(C)c1ccc2c(c1)OC(C(=O)N/N=C\c1ccc[nH]1)CO2 (configuration not stated)?
Answer: AC50 [8]: 23 µM (active); EC50 [16]: 0.436 µM (active); AC50 [9]: 1.94 µM (active)

Question: What does the source list for COc1ccc(CCNC(=O)c2cc(-c3ccc(Cl)c(Cl)c3)oc2C)cc1?
Answer: EC50 [11]: 6.21 µM (inconclusive); AC50 [8]: 48.4 µM (active); EC50 [14]: 22.4 µM (active); EC50 [15]: 7.72 µM (active); AC50 [9]: 3.04 µM (active)

Question: Which results are given for COc1ccc2nc(NC(=O)CCNC(=O)c3ccco3)sc2c1?
Answer: IC50 [5]: > 119 µM (inactive); IC50 [7]: > 119 µM (inactive)
